Experimental data taken from patent US20160159814A1, “GLYCINE TRANSPORTER INHIBITOR” (TAISHO PHARMACEUTICAL CO., LTD., priority 2013, published 2016).

The compounds below were run against T1, human type 1 glycine transporter (GlyT1) (Homo sapiens, UniProt P48067) (assay: Glycine uptake inhibition experiment ([3H] glycine uptake in T98G cells expressing GlyT1)). Conditions: not given.
T1 construct: T98G cells (glioma cells) expressing human type 1 glycine transporter (GlyT1) were used; endogenous in cells; host or cells: T98G cells (human glioma cells)
T1 sequence (P48067 1-706): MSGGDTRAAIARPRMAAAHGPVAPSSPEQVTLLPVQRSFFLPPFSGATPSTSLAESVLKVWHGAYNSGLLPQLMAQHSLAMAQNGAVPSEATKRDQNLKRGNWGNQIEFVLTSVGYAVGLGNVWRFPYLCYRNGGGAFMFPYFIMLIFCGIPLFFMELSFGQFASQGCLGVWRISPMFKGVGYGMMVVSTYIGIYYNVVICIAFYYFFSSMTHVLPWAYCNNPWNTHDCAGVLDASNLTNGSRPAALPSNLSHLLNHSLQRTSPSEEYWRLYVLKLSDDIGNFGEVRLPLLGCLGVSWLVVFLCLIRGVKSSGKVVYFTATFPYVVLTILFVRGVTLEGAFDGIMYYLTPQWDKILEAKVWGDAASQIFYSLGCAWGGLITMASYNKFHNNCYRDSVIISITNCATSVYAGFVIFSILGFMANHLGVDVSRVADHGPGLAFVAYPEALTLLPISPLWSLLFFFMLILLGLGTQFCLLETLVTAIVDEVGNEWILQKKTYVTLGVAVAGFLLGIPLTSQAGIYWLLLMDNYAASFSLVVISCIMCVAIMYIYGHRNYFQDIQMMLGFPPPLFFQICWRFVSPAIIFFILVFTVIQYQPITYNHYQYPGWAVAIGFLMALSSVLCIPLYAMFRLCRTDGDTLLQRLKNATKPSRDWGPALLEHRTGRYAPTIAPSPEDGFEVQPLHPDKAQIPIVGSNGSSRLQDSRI
Type: cell-based
How it was run: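 T98G glioma cells expressing human GlyT1 were pretreated 10 min with compound in HEPES buffer pH 7.4 (0.2% BSA), then incubated with compound plus 250 nM final [3H]glycine for 15 min at room temperature. Intracellular radioactivity was counted after NaOH lysis; 10 μM ALX5407 defined non-specific uptake. IC50 came from 10^−9–10^−5 M curves.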

SMILES | IC50
C[C@H](O)c1cccc2c1C(F)(F)C(=O)N2Cc1cc(C#N)ncc1F [Compound 188, 4-({3,3-difluoro-4-[(1S)-1-hydroxyethyl]-2-oxo-2,3-dihydro-1H-indol-1-yl}methyl)-5-fluoropyridine-2-carbonitrile] | 62 nM
C[C@H](O)c1cccc2c1C(F)(F)C(=O)N2Cc1cccnc1Cl [Compound 210, 1-[(2-chloropyridin-3-yl)methyl]-3,3-difluoro-4-[(1S)-1-hydroxyethyl]-1,3-dihydro-2H-indol-2-one] | 680 nM
COc1cc(Cl)ncc1CN1C(=O)C(F)(F)c2c([C@H](C)O)cccc21 [Compound 231, 1-[(6-chloro-4-methoxypyridin-3-yl)methyl]-3,3-difluoro-4-[(1S)-1-hydroxyethyl]-1,3-dihydro-2H-indol-2-one] | 140 nM
O=C1N(Cc2cncc(Cl)c2)c2c(F)ccc(C(O)C(F)F)c2C1(F)F (single isomer, unassigned) [Compound 253, 1-[(5-chloropyridin-3-yl)methyl]-4-(2,2-difluoro-1-hydroxyethyl)-3,3,7-trifluoro-1,3-dihydro-2H-indol-2-one] | 47 nM
Cn1c(CN2C(=O)C(F)(F)c3c(C(O)C(F)F)cccc32)nc2ccccc21 (single isomer, unassigned) [Compound 170, 4-(2,2-difluoro-1-hydroxyethyl)-3,3-difluoro-1-[(1-methyl-1H-benzimidazol-2-yl)methyl]-1,3-dihydro-2H-indol-2-one] | 110 nM
O=C1N(Cc2cncc(Cl)n2)c2cccc(C(O)C(F)F)c2C1(F)F (single isomer, unassigned) [Compound 172, 1-[(6-chloropyrazin-2-yl)methyl]-4-(2,2-difluoro-1-hydroxyethyl)-3,3-difluoro-1,3-dihydro-2H-indol-2-one] | 24 nM
O=C1N(Cc2ccnc(C(F)(F)F)c2)c2cccc(C(O)C(F)F)c2C1(F)F (single isomer, unassigned) [Compound 191, 4-(2,2-difluoro-1-hydroxyethyl)-3,3-difluoro-1-{[2-(trifluoromethyl)pyridin-4-yl]methyl}-1,3-dihydro-2H-Indol-2-one] | 29 nM
N#Cc1nc(CN2C(=O)C(F)(F)c3c(C(O)C(F)F)cccc32)ccc1F (single isomer, unassigned) [Compound 275, 6-{[4-(2,2-difluoro-1-hydroxyethyl)-3,3-difluoro-2-oxo-2,3-dihydro-1H-indol-1-yl]methyl}-3-fluoropyridine-2-carbonitrile] | 9.1 nM
C[C@H](O)c1cccc2c1C(F)(F)C(=O)N2Cc1ncc(Cl)cc1C#N [Compound 242] | 83 nM

Same assay, conditions: glycine uptake inhibition

SMILES | IC50
O=C1N(Cc2ccnc(C(F)F)c2)c2cccc([C@@H](O)C(F)(F)F)c2C1(F)F [Compound 139, 1-[[2-(difluoromethyl)pyridin-4-yl]methyl]-3,3-difluoro-4-[(1R)-2,2,2-trifluoro-1-hydroxyethyl]-1,3-dihydro-2H-indol-2-one] | 45 nM
O=C1N(Cc2cccc(Cl)n2)c2cccc(C3(O)COC3)c2C1(F)F [Compound 25, 1-[(6-chloropyridin-2-yl)methyl]-3,3-difluoro-4-(3-hydroxyoxetan-3-yl)-1,3-dihydro-2H-indol-2-one] | 7600 nM
C[C@H](O)c1cccc2c1C(F)(F)C(=O)N2Cc1ccc2ncoc2c1 [Compound 127, 1-(1,3-benzoxazol-6-ylmethyl)-3,3-difluoro-4-[(1S)-1-hydroxyethyl]-1,3-dihydro-2H-indol-2-one] | 29 nM
C[C@H](O)c1cccc2c1C(F)(F)C(=O)N2Cc1cc(C(F)F)ccn1 [Compound 122, 1-{[4-(difluoromethyl)pyridin-2-yl]methyl}-3,3-difluoro-4-{(1S)-1-hydroxyethyl]-1,3-dihydro-2H-indol-2-one] | 220 nM
C[C@H](O)c1cccc2c1C(F)(F)C(=O)N2Cc1ccncc1 [Compound 64, 3,3-difluoro-4-[(1S)-1-hydroxyethyl]-1-(pyridin-4-ylmethyl)-1,3-dihydro-2H-indol-2-one] | 390 nM
C[C@H](O)c1cccc2c1C(F)(F)C(=O)N2Cc1nc2ccccc2[nH]1 [Compound 88, 1-(1H-benzimidazol-2-ylmethyl)-3,3-difluoro-4-[(1S)-1-hydroxyethyl)-1,3-dihydro-2H-indol-2-one] | 87 nM
N#Cc1cc(CN2C(=O)C(F)(F)c3c(C(O)C(F)(F)F)cccc32)ccn1 (single isomer, unassigned) [Compound 21, 4-{[3,3-difluoro-2-oxo-4-(2,2,2-trifluoro-1-hydroxyethyl)-2,3-dihydro-1H-indol-1-yl]methyl}pyridine-2-carbonitrile] | 71 nM
CC(c1cccc(Cl)n1)N1C(=O)C(F)(F)c2c([C@H](C)O)cccc21 (single isomer, unassigned) [Compound 52] | 330 nM
C[C@H](O)c1cccc2c1C(F)(F)C(=O)N2Cc1nc2ccccc2n(C)c1=O [Compound 101, 3-({3,3-difluoro-4-[(1S)-1-hydroxyethyl]-2-oxo-2,3-dihydro-1H-indol-1-yl}methyl)-1-methylquinoxalin-2(1H)-one] | 41 nM
CC(O)c1cccc2c1C(F)(F)C(=O)N2Cc1cccc(Cl)n1 (single isomer, unassigned) [Compound 4] | 6.5 nM
C[C@H](O)c1cccc2c1C(F)(F)C(=O)N2Cc1cc(C#N)ccn1 [Compound 85, 2-({3,3-difluoro-4-[(1S)-1-hydroxyethyl]-2-oxo-2,3-dihydro-1H-indol-1-yl}methyl)pyridine-4-carbonitrile] | 420 nM
CC(c1cccc(Cl)n1)N1C(=O)C(F)(F)c2c([C@H](C)O)cccc21 (single isomer, unassigned) [Compound 53] | 140 nM
CC(O)c1cccc2c1C(F)(F)C(=O)N2Cc1cccc(Cl)n1 (single isomer, unassigned) [Compound 5, 1-[(6-chloropyridin-2-yl)methyl]-3,3-difluoro-4-(1-hydroxyethyl)-1,3-dihydro-2H-indol-2-one] | 300 nM
O=C1N(Cc2cncc(Cl)c2)c2ccc(Cl)c([C@@H](O)C(F)(F)F)c2C1(F)F [Compound 95, 5-chloro-1-[(5-chloropyridin-3-yl)methyl]-3,3-difluoro-4-[(1R)-2,2,2-trifluoro-1-hydroxyethyl]-1,3-dihydro-2H-indol-2-one] | 1000 nM
C[C@H](O)c1cccc2c1C(F)(F)C(=O)N2Cc1cccc2ccnn12 [Compound 104, 3,3-difluoro-4-[(1S)-1-hydroxyethyl]-1-(pyrazolo[1,5-a]pyridin-7-ylmethyl)-1,3-dihydro-2H-indol-2-one] | 88 nM
C[C@@H](O)c1cccc2c1C(F)(F)C(=O)N2Cc1ccnc(F)c1 [Compound 43, 3,3-difluoro-1-[(2-fluoropyridin-4-yl)methyl]4-[(1R)-1-hydroxyethyl]-1,3-dihydro-2H-indol-2-one] | 4400 nM
O=C1N(Cc2cncc(Cl)c2)c2cccc(C(O)C(F)(F)F)c2C1(F)F (centres unmarked) [Compound 17, 1-[(5-chloropyridin-3-yl)methyl]-3,3-difluoro-4-(2,2,2-trifluoro-1-hydroxyethyl)-1,3-dihydro-2H-indol-2-one] | 72 nM
O=C1N(Cc2ccnc(Cl)c2)c2cccc([C@@H](O)C(F)(F)F)c2C1(F)F [Compound 32, 1-[(2-chloropyridin-4-yl)methyl]-3,3-difluoro-4-[(1R)-2,2,2-trifluoro-1-hydroxyethyl]-1,3-dihydro-2H-indol-2-one] | 38 nM
O=C1N(Cc2cncc(Cl)n2)c2cccc([C@@H](O)C(F)(F)F)c2C1(F)F [Compound 47, 1-[(6-chloropyrazin-2-yl)methyl]-3,3-difluoro-4-[(1R)-2,2,2-trifluoro-1-hydroxyethyl]-1,3-dihydro-2H-indol-2-one] | 40 nM
C[C@H](O)c1cccc2c1C(F)(F)C(=O)N2Cc1ccc2ncccc2n1 [Compound 78, 3,3-difluoro-4-[(1S)-1-hydroxyethyl]-1-(1,5-naphthyridin-2-ylmethyl)-1,3-dihydro-2H-indol-2-one] | 320 nM
O=C1N(Cc2cncc(Cl)c2)c2cccc(C(O)C(F)(F)F)c2C1(F)F (single isomer, unassigned) [Compound 22, 1-[(5-chloropyridin-3-yl)methyl]-3,3-difluoro-4-(2,2,2-trifluoro-1-hydroxyethyl)-1,3-dihydro-2H-indol-2-one] | 1900 nM
C[C@H](O)c1cccc2c1C(F)(F)C(=O)N2Cc1nnc2ccccc2n1 [Compound 105, 1-(1,2,4-benzotriazin-3-ylmethyl)-3,3-difluoro-4-[(1S)-1-hydroxyethyl]-1,3-dihydro-2H-indol-2-one] | 1000 nM

Same assay, conditions: table section whose head prints (μm)

SMILES | IC50
O=C1N(Cc2ccc(F)c(Cl)n2)c2cccc(C(O)C(F)F)c2C1(F)F (single isomer, unassigned) [Compound 263, 1-[(6-chloro-5-fluoropyridin-2-yl)methyl]-4-(2,2-difluoro-1-hydroxyethyl)-3,3-difluoro-1,3-dihydro-2H-indol-2-one] | 11 nM
